Source: US11589588B2, “Methods of identification and use of nematicide compounds” (UNIVERSITY OF NEW HAMPSHIRE, priority 2013, dated 2023)

What was measured:
Type in all cases: in vivo
C. elegans [1] = experiment: Motility of dauer state C. elegans exposed to PDE inhibitors; conditions: among several PDE inhibitors tested
Description: (§1) The dauer state is morphologically similar to the infective states in juvenile phytoparasitic nematodes.
For this study, worms were contacted with drugs and scored for motility at various time points after the drug treatment to determine how quick the motility defect occurred. Nematodes were scored at 0, 1, 2, 4, 8, and 24 hours after addition of the treatment. Concentrations were 4.9 μM cilostazol, 2.5 μM Rolipram, and 6.6 μM papaverine. […] The time is shown in hours after contact was initiated and the effect was determined by assessing the fraction of contacted works that were motile, relative to control worm motility (i.e., worms not contacted with the tested drug). Cilostazol, rolipram and papaverine were tested. […] The time is shown in hours after contact and the effect was determined by assessing the fraction of contacted works that were motile, relative to control worm motility (controls were worms not contacted with tested drug).

C. elegans [2] = experiment: Recovery of motility after contact with PDE inhibitor ceased; conditions: 24 hours exposure, evaluated 24 hours after inhibitor removed
Description: Motility is shown relative to the control condition (i.e., motility of worms not contacted with the test drug). The black bars represent the fraction of motile worms after 24 hours of exposure to the PDE inhibitor. The grey bars represent the fraction of motile worms 24 hours after the exposure to the inhibitor ceased. The experiment was repeated three times and the data points represent the mean plus and minus the standard deviation.
as §1
For the study, nematodes were exposed for 24 hours with the PDE inhibitor (at the concentration indicated in FIG. 15) and then plated out and evaluated for normal motility as described elsewhere in the Examples. […] Motility is shown relative to control motility in worms not contacted with the test drug.

C. elegans [3] = experiment: Egg hatching / fecundity of C. elegans continuously exposed to PDE inhibitors; conditions: continuous exposure at concentrations maximally reducing motility; juveniles counted on Day 5; FIG. 6; experiment performed once
Description: The number of newly hatched juveniles on Day 5 was counted and normalized to the reproductive success of the control condition (no inhibitor). This experiment was performed once.
To assess disruption of activities such as developmental progression leading to egg hatching in nematodes, C. elegans eggs are exposed to PDE inhibitors. The nematode eggs are exposed to a range of concentrations of family-specific PDE inhibitors, and inhibitors that prevent egg hatching are identified.
The number of hatched larvae in the treated group was compared to a control (untreated) group and the results are evaluated as a function of time up to 3 days after exposure to the PDE inhibitor.
The ability of these various PDE inhibitors to reduce the fecundity of C. elegans was also examined.

SMILES | effectiveness in reducing motility (C. elegans [1]) | reversibility of drug effects on motility (C. elegans [2]) | effect on egg hatching (number of newly hatched juveniles relative to control) (C. elegans [3])
COc1ccc(Cc2nccc3cc(OC)c(OC)cc23)cc1OC [papaverine] | most effective in reducing motility | reversed after 24 hours | 
O=C1CCc2cc(OCCCCc3nnnn3C3CCCCC3)ccc2N1 [cilostazol] | most effective in reducing motility | reversed after 24 hours | most effective in preventing egg hatching
Cn1cc(-c2ccncc2)c(-c2ccc(OCc3ccc4ccccc4n3)cc2)n1 [MP10] | most effective in reducing motility | reversed after 24 hours | 
OCCN(CCO)c1nc(N2CCCCC2)c2nc(N(CCO)CCO)nc(N3CCCCC3)c2n1 [dipyridamole] |  |  | enhanced egg hatching
Cc1[nH]c(=O)c(C#N)cc1-c1ccncc1 [milrinone] | most effective in reducing motility | reversed after 24 hours | 
CCOC(=O)C1=C[C@]2(CC)CCCN3CCc4c(n1c1ccccc41)[C@@H]32 [vinpocetine] |  |  | most effective in preventing egg hatching
COc1ccc(C2CNC(=O)C2)cc1OC1CCCC1 (centres unmarked) [rolipram] | most effective in reducing motility | reversed after 24 hours | 
CC(C)Cn1c(=O)n(C)c(=O)c2[nH]cnc21 [IBMX, 3-isobutyl-1-methylxanthine] |  |  | most effective in preventing egg hatching
